The record followed here is US9561239B2, “Compositions and methods for inhibiting norovirus infection” (Children's Hospital Medical Center, priority 2013, dated 2017).

Molecules are shown by their SMILES. Read-outs that look alike come from different tables or passages of the source.

Data set [1] concerns the target VA387 P dimer binding to the synthetic A and B oligosaccharides (Norovirus GII.4 (Human calicivirus NLV/VA98387/1998), UniProt Q913Z3). In words: Synthetic HBGA oligosaccharide-PAA conjugate blocking assay. Details: species or system Norovirus VA387 (GII.4). As to the method:
(§1) Saliva-based NoV-HBGA binding assays were performed as described previously using P dimers of VA387 (GII.4) as NoV surrogates and saliva samples and/or synthetic oligosaccharides as HBGA sources. Briefly, synthetic oligosaccharides and/or boiled saliva samples with defined HBGAs phenotype were coated on 96-well microtiter plates, after blocking with nonfat milk, P dimer of VA387 were added. The bound P dimer was detected using a guinea pig antiserum against NoVs VLPs, followed by the addition of horseradish peroxidase (HRP)-conjugated goat anti-guinea pig IgG. The bound HRP conjugates were colorized by the TMB kit (Kirkegaard & Perry Laboratories), which was read an EIA spectrum reader (Tecan). The synthetic oligosaccharide-PAA conjugates (2 μg/ml, GlycoTech Corporation, Rockville, Md.) were captured to a microtiter plate through coated streptavidin (5 μg/ml).
(§2) Blocking effects of the hit compounds were measured by a pre-incubation of the P dimers with the compounds at given concentrations for 30 min before the P dimers were added to the coated saliva samples or HBGA oligosaccharides in a binding assay. The blocking activity of a compound was defined as its concentration yielding 50% inhibition (IC50) in the binding assay. IC50 calculation was performed using Probit regression analysis and correlation analysis between IC50 and Ki values was performed with nonparametric Spearman's r (two-tailed) by using SPSS statistical software version 13.0 (SPSS, Chicago, Ill.).

Data set [2] deals with P dimers of VA387 (GII.4) binding to saliva HBGAs (Norovirus GII.4 (Human calicivirus NLV/VA98387/1998), UniProt Q913Z3). In words: Saliva-based NoV/HBGA blocking assay. Details: species or system Norovirus VA387 (GII.4). The protocol: as §1, §2
Data set [3] can be described thus: MTS cytotoxicity assay. Format: cell-based, human; rhesus monkey. The conditions noted are these: HeLa and LLC-MK2 cells, 3 days incubation; cell line per value not stated. The protocol:
This assay was performed using CellTiter 96 aqueous nonradioactive cell proliferation kits (Promega, Madison, Wis.) as described elsewhere. Briefly, HeLa and LLC-MK2 cells were seeded at 5×10^4 cells/ml onto a 96-well plate overnight. After an incubation with each compound at various concentrations for 3 days (the compound was added one time at the beginning of the incubation), the culture medium was replaced with fresh one with 100 μl of MTS-phenazine methosulfate/well. After a further incubation at 37° C. for 2 h, the color products of MTS were measured with a plate reader at 490 nm. The cytotoxicities of individual compounds were indicated by the decrease in cellular reduction of MTS into the colored product. The 50% cytotoxic concentrations (CC50) were determined as the concentrations of the compounds that caused 50% inhibition of cell growth compared with that of control cells without a compound.

Setting [4] is: Activity (IC50), blocking the binding of NoV P dimer to HBGAs, given as range or bound.
Where [5] appears, read: IC50 Saliva A, blocking assay, type A saliva as HBGA source, mean ± standard deviation.
[6] abbreviates: IC50 Saliva B, blocking assay, type B saliva as HBGA source, mean ± standard deviation.
Where [7] appears, read: blocking assay, type A saliva as HBGA source, mean ± standard deviation, read-out: IC50 Saliva A.
Where [8] appears, read: blocking assay, type B saliva as HBGA source, mean ± standard deviation, read-out: IC50 Saliva B.

P dimers of VA387 (GII.4) binding to saliva HBGAs, sequence (Q913Z3 214-539): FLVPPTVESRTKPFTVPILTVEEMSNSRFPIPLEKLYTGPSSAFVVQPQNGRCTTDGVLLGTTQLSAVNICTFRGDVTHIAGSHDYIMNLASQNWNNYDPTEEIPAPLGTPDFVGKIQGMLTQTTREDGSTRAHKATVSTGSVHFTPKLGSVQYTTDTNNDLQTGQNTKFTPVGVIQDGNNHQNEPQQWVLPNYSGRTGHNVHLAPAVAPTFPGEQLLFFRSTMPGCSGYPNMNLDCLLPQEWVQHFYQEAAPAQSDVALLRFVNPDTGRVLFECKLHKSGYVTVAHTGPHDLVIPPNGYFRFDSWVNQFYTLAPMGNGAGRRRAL
VA387 P dimer binding to the synthetic A and B oligosaccharides, sequence (Q913Z3 214-539): as above

As for `CC(=O)C1CCC2C3CC[C@H]4CC(O)CCC4(C)C3CCC12C` (stereo partly drawn) [Compound 2], the concentration for half-maximal inhibition (IC50) in data set [1] was under 10 µM; in data set [2] (setting [4]), 1 to 10 µM; in data set [2] (setting [5]) it was 2.9 ± 0.33 µM; in data set [2] (setting [6]) it was 2.93 ± 0.18 µM. For the same molecule, the CC50 at 3 days in data set [3] was 267 µM.
For `CC1CCc2c(sc3ncn(C(C)C(=O)N/N=C/c4c(O)ccc5ccccc45)c(=O)c23)C1` (stereo not drawn) [Compound 9], the values for the IC50 in data set [2] (setting [7]) and in data set [2] (setting [8]) were 17 ± 1.06 µM and 16.8 ± 0.87 µM, respectively.
On to `C[C@]12CCC3C(CC[C@H]4CC=CC[C@]34C)C1CC/C2=N/NC(N)=S` (stereo partly drawn) [Compound 5], for which the IC50 in data set [1] was under 10 µM; in data set [2] (setting [7]) it was 8.7 ± 1.03 µM; in data set [2] (setting [8]), 8.97 ± 0.63 µM.
With `C[C@]12CC[C@H](O)C=C1CC[C@@H]1C2CC[C@@]2(C)C1CC[C@@]21CCC(=O)O1` (stereo partly drawn) [Compound 11], the half-maximal inhibitory concentration (IC50) in data set [2] (setting [4]) is 20 to 40 µM; in data set [2] (setting [5]) it was 22.7 ± 1.36 µM; in data set [2] (setting [6]), 23.7 ± 1.28 µM.
For `Nc1ccc2c(c1)C1C=CCC1C(c1ccc([N+](=O)[O-])cc1)N2` (stereo not drawn) [Compound 6], the half-inhibitory concentration (IC50) in data set [2] (setting [4]) was 10 to 20 µM; in data set [2] (setting [7]) it was 12.6 ± 0.87 µM; in data set [2] (setting [8]), 12.8 ± 0.64 µM.
`C[C@]12CC[C@H](O)C[C@@H]1CC[C@@H]1[C@@H]2CC[C@@]2(C)[C@H]1CC[C@]2(C)O` [Compound 3]: the values for the half-maximal inhibitory concentration (IC50) in data set [1] and in data set [2] (setting [8]) were under 10 µM and 3.39 ± 0.24 µM, respectively.
As for `C[C@]12CC[C@H](O)C=C1CC[C@@H]1C2CC[C@@]2(C)C1CC[C@@]21CCC(=O)O1` (stereo partly drawn) [Compound 15], the half-maximal inhibitory concentration (IC50) in data set [2] (setting [5]) came to 28.5 ± 1.54 µM; in data set [2] (setting [6]), 29.4 ± 1.24 µM.
Regarding `Cc1noc2c1C1(C)CCC3C(CC=C4CC(O)CCC43C)C1C2` (stereo not drawn) [Compound 18], the 50% inhibitory concentration (IC50) is 20 to 40 µM in data set [2] (setting [4]), 33.9 ± 1.67 µM in data set [2] (setting [7]) and 34.5 ± 1.93 µM in data set [2] (setting [8]).
For the molecule `O=[N+]([O-])c1ccc2c(c1)C1C=CCC1C(C1CC=CCC1)N2` (stereo not drawn) [Compound 7], the values for the 50% inhibitory concentration (IC50) in data set [2] (setting [4]) and in data set [2] (setting [8]) were 10 to 20 µM and 13.1 ± 0.87 µM, respectively.
As to `CC(=O)C1=CCC2[C@@H]3CC=C4C[C@H](O)CC[C@]4(C)C3CC[C@]12C` (stereo partly drawn) [Compound 14], the 50% inhibitory concentration (IC50) is 20 to 40 µM in data set [2] (setting [4]), 24.8 ± 2.02 µM in data set [2] (setting [5]) and 25.1 ± 1.32 µM in data set [2] (setting [6]).
For the molecule `O=C1CC(c2ccc([N+](=O)[O-])cc2)c2ccc3ccccc3c2N1` (stereo not drawn) [Compound 13], the 50% inhibitory concentration (IC50) in data set [2] (setting [4]) is 20 to 40 µM; in data set [2] (setting [7]) it was 24.5 ± 0.98 µM; in data set [2] (setting [8]), 26.3 ± 1.24 µM.
The corresponding values for `CC(=O)OCC(=O)C1CCC2C3CC=C4CC(O)CCC4(C)C3CCC12C` (stereo not drawn) [Compound 16] are 20 to 40 µM, 30.9 ± 1.04 µM and 30.1 ± 1.35 µM.
Consider `C[C@]12CC[C@H]3[C@@H](CCC4=C/C(=N/OCC(=O)NCC(=O)O)CC[C@@]43C)[C@@H]1CC[C@H]2O` [Compound 10], for which the 50% inhibitory concentration (IC50) in data set [2] (setting [4]) is 10 to 20 µM; in data set [2] (setting [5]) it was 18.7 ± 0.35 µM; in data set [2] (setting [6]), 18.6 ± 0.62 µM.
Turning to `CC1(C)CC(=O)C2=C(C1)c1c(ccc3ccccc13)NC2` [Compound 8], the IC50 in data set [2] (setting [4]) is 10 to 20 µM; in data set [2] (setting [7]) it was 14.1 ± 0.53 µM; in data set [2] (setting [8]), 14.9 ± 0.71 µM.
Turning to `Cc1ccc(C2CC(=O)Nc3c2ccc2ccccc32)cc1[N+](=O)[O-]` (stereo not drawn) [Compound 17], the IC50 in data set [2] (setting [4]) was 20 to 40 µM; in data set [2] (setting [8]) it was 33.7 ± 1.27 µM.
Consider `CNc1cc([N+](=O)[O-])cc2c1NC(c1ccccn1)C1CC=CC21` (stereo not drawn) [Compound 12], for which the half-inhibitory concentration (IC50) in data set [2] (setting [4]) lay within 20 to 40 µM.
Take `O=C(O)c1ccc(C2Nc3c(F)cccc3C3C=CCC32)cc1` (stereo not drawn) [Compound 20]: the IC50 was 20 to 40 µM in data set [2] (setting [4]), 38 ± 2.01 µM in data set [2] (setting [7]) and 39.4 ± 1.53 µM in data set [2] (setting [8]).
As for `C/C(=N/O)C1=CCC2C3CC[C@H]4C/C(=N\O)CC[C@]4(C)C3CC[C@]12C` (stereo partly drawn) [Compound 1], the IC50 in data set [1] is under 10 µM; in data set [2] (setting [7]), 2.38 ± 0.15 µM; in data set [2] (setting [8]), 2.54 ± 0.21 µM.
On to `CC(CCC(=O)O)C1CCC2C3CC=C4CC(O)CCC4(C)C3CCC12C` (stereo not drawn) [Compound 4], for which the figures for the IC50 in data set [1] and in data set [2] (setting [8]) were under 10 µM and 7.65 ± 0.33 µM, respectively.
As for `CC12CCC3C(CCC4CC(=O)CCC43C)C1CCC2O` (stereo not drawn) [Compound 19], the IC50 in data set [2] (setting [4]) is 20 to 40 µM; in data set [2] (setting [7]), 36.9 ± 1.47 µM; in data set [2] (setting [8]), 35.7 ± 1.06 µM.
